Experimental data published in patent US10881719B2, “Combinatorial androgen deprivation with an androgen receptor vaccine” (Wisconsin Alumni Research Foundation, priority 2016, dated 2021).
Square brackets hold non-standard residues; d marks the D form. Peptide text beside a SMILES is read from it. * marks the point of attachment. dPhe(4-NHCONH2) = NC(=O)Nc1ccc(C[C@@H](N)C(=O)O)cc1; Dihydroorotyl(S) = O=C1C[C@@H](C(=O)*)NC(=O)N1; dPhe(4-Cl) = N[C@H](Cc1ccc(Cl)cc1)C(=O)O; Phe(4-NH2) = Nc1ccc(C[C@H](N)C(=O)O)cc1; d2Nal = N[C@H](Cc1ccc2ccccc2c1)C(=O)O; Lys(iPr) = CC(C)NCCCC[C@H](N)C(=O)O; d3Pal = N[C@H](Cc1cccnc1)C(=O)O

How the values were obtained:
[1] = tested on: prostate tumor cells; assay: AR expression in prostate tumor cells in vitro after treatment with AR antagonists; assay type: cell-based; conditions: after treatment with AR antagonist
[2] = tested on: Myc-CaP/AS tumors; assay: AR expression in MycCaP tumors in vivo after chemical castration, intracellular staining; set-up: species or system FVB mice; conditions: MycCaP model in vivo, degarelix vs sham, tumors at outgrowth
From the text: Briefly, Human 22Rv1 prostate cancer cells cultured in androgen replete (FCS) or—deprived (CSS) conditions (FIG. 7A), or mouse MycCaP cells serially passaged in untreated (MycCaP/AS) or castrate (MycCaP/CR) mice (FIG. 7B) were collected and analyzed for AR expression by qPCR (left panels), ELISA (center panels), and intracellular staining (ICS, right panels). FIG. 7C, FVB mice were challenged with MycCaP/AS tumor cells, and given degarelix or a sham treatment. At the time of outgrowth, tumors were collected and analyzed for AR expression by intracellular flow cytometry (example histogram with samples stained with IgG or AR-intracellular antibodies; quantified in right panels). FIG. 7D, AR-specific CD8+ T cells were cultured with 22Rv1/FCS or 22Rv1/CSS cells, and evaluated for T-cell activation by CD69 expression (left panel), IFNγ and TNFα cytokine expression (center panel), and cytotoxicity (right panel). In all panels, * indicates p<0.05 by Student's t-test.
FVB mice were inoculated subcutaneously with […] Myc-CaP/AS tumor cells, and followed daily for the presence of palpable tumors. Once tumors were palpable, mice were treated subcutaneously with either degarelix (25 mg/kg) or a vehicle sham treatment every four weeks. […] Tumor growth was measured at least three times weekly, and tumor volumes calculated as we've published (19). […]

[3] = tested on: Myc-CaP/AS tumors; assay: Myc-CaP/AS tumor growth in FVB mice, ADT with or without immunization; assay type: in vivo; conditions: degarelix alone, MycCaP model
Procedure: Briefly, male FVB mice (n=8) were implanted with MycCaP tumors, treated with degarelix (or sham), and immunized weekly with pTVG-AR or control pTVG4. FIG. 8A, splenocytes were collected and analyzed for immune responses against MycCaP/CR tumor cells by intracellular cytokine staining (left panel) and AR peptide-stimulated splenocytes from pTVG-AR-immunized mice were measured for ability to lyse MycCap/AS vs. MycCap/CR tumor cells (right panel). FIG. 8B depicts mice followed for tumor volume. In all panels, * indicates p<0.05 by Student's t-test. FIG. 8C depicts tumor volume post-challenge of control (sham), degarelix+pTVG4 and degarelix+pTVG-AR.
FVB mice were inoculated subcutaneously with […] Myc-CaP/AS tumor cells, and followed daily for the presence of palpable tumors. Once tumors were palpable, mice were treated subcutaneously with either degarelix (25 mg/kg) or a vehicle sham treatment every four weeks. For immunization studies, degarelix-treated animals were randomized to weekly immunization with 100 μg pTVG4 or pTVG-AR beginning one day after receiving degarelix. Tumor growth was measured at least three times weekly, and tumor volumes calculated as we've published (19). At the time of euthanasia, tumors and spleens were collected. […]

[4] = tested on: PTEN-deficient prostate tumors; assay: Autochthonous prostate tumors in PbCre+ PTENfl/fl mice, PET/CT and necropsy; assay type: in vivo; conditions: androgen deprivation (degarelix) vs sham, pre- to post-treatment
Procedure: FVB mice were inoculated subcutaneously with […] Myc-CaP/AS tumor cells, and followed daily for the presence of palpable tumors. Once tumors were palpable, mice were treated subcutaneously with either degarelix (25 mg/kg) or a vehicle sham treatment every four weeks. For immunization studies, degarelix-treated animals were randomized to weekly immunization with 100 μg pTVG4 or pTVG-AR beginning one day after receiving degarelix. Tumor growth was measured at least three times weekly, and tumor volumes calculated as we've published (19). At the time of euthanasia, tumors and spleens were collected. For studies using PTEN-deficient mice, animals began receiving degarelix (25 mg/kg) at 20 weeks (+/−two weeks) of age, followed by biweekly immunization with 100 μg pTVG4 or pTVG-AR beginning one day after ADT. Animals were treated until 40 weeks of age (+/−two weeks) before tissue collection.
All mice were intravenously administered between 5-8 MBq of 124I-CLR1404 and then micro positron emission tomography/computed tomography (PET/CT) scanned 96 hrs post-injection. During scanning, mice were anesthetized with 2% isoflurane inhalation gas mixed with 1 L/min of pure oxygen (27). […]
All PET and CT images were co-registered. Image data were analyzed using the General Analysis tools provided by Siemens Inveon Research Workplace (Siemens Medical Solutions). […]

Structure (SMILES)	AR expression in prostate tumor cells [1]	AR expression in tumors [2]	tumor growth [3]	124I-CLR1404 mean and max tumor uptake [4]
CNC(=O)c1ccc(N2C(=S)N(c3ccc(C#N)c(C(F)(F)F)c3)C(=O)C2(C)C)cc1F [enzalutamide]	increased AR expression	–	–	–
CC(=O)N[C@H](Cc1ccc2ccccc2c1)C(=O)N[C@H](Cc1ccc(Cl)cc1)C(=O)N[C@H](Cc1cccnc1)C(=O)N[C@@H](CO)C(=O)N[C@@H](Cc1ccc(NC(=O)[C@@H]2CC(=O)NC(=O)N2)cc1)C(=O)N[C@H](Cc1ccc(NC(N)=O)cc1)C(=O)N[C@@H](CC(C)C)C(=O)N[C@@H](CCCCNC(C)C)C(=O)N1CCC[C@H]1C(=O)N[C@H](C)C(N)=O [degarelix] (Ac-[d2Nal][dPhe(4-Cl)][d3Pal]S[Phe(4-NH2)](Dihydroorotyl(S))[dPhe(4-NHCONH2)]L[Lys(iPr)]P[dA]-NH2)	–	increased AR expression in tumors	delay in tumor growth	decreased 124I-CLR1404 mean and max tumor uptake
